# Results as given in US9968573B2, “Endoprosthesis having and active substance coating” (HEMOTEQ AG, priority 2011, dated 2018).
# Like-named read-outs stand apart in the source and are kept apart here.
# How the values were obtained:
# L929 cell line = assay: In vitro cytotoxicity, growth inhibition of L929 cell line; type: cell-based; conditions: 68-72 h
# Method: The cytotoxic effect was tested on the growth inhibition of L929 cell line after incubation period of 68-72 h for 6 different concentrations according to relevant, valid DIN and ISO standards. DMEM 10% FCS was used as a negative control and the positive control was 5% DMSO in DMEM 10% FCS
# [1] = test system: Staphylococcus aureus (ATCC 6538); conditions: Ti-Cylinder, rough surface
# Method: Then, the minimum inhibitory concentration (MIC) for Staphylococcus aureus (ATCC 6538) is determined over a serial dilution series according to DIN 58940 (Part 7).
# L929 cells = conditions: Ti-Cylinder, rough surface, 24 h extract, L929 68 h
# Method: This allows a conclusion on the proliferation of the cells during incubation.
# [2] = test system: partially resistant Staphylococcus aureus strains; conditions: conversion of literature MIC to gentamicin pantothenate per cm^2
# Method: For this purpose, coarse-blasted titanium cylinders were coated by pipetting with different amounts of ethanolic gentamicin-5-pantothenate solution and after drying the coating mass was determined by weighing. The coated titanium tubes were then γ-sterilized.
# Approximate values for the upper limit and lower limit of the amount of coating on the test specimens were derived using data already known to cytotoxicity of gentamicin as a pure substance. […] The upper limit of the samples was determined on the basis of model calculations in combination with experimentally specifically determined data of cytotoxicity of gentamicin sulfate.
# [3] = test system: partially resistant Staphylococcus aureus strains; conditions: gentamicin as a pure substance (Alt et al., 2004); cited from earlier work
compound,measurement,setting,value
CCCCCCCCCCCCCCCC(=O)O [palmitic acid],GI (growth inhibition of the cell line L929),"L929 cell line; c 0.005 mg/mL, n = 3, solvent 0.5% ethanol",2%
same,GI (growth inhibition of the cell line L929),"L929 cell line; c 0.01 mg/mL, n = 3, solvent 0.5% ethanol",5%
same,GI (growth inhibition of the cell line L929),"L929 cell line; c 0.02 mg/mL, n = 3, solvent 0.5% ethanol",8%
same,GI (growth inhibition of the cell line L929),"L929 cell line; c 0.03 mg/mL, n = 3, solvent 0.5% ethanol",17%
same,GI (growth inhibition of the cell line L929),"L929 cell line; c 0.04 mg/mL, n = 3, solvent 0.5% ethanol",22%
same,GI (growth inhibition of the cell line L929),"L929 cell line; c 0.05 mg/mL, n = 3, solvent 0.5% ethanol",30%
calcium pantothenate [Ca pantothenate],GI (growth inhibition of the cell line L929),"L929 cell line; c 0.3 mg/mL, n = 3",0%
same,GI (growth inhibition of the cell line L929),"L929 cell line; c 0.6 mg/mL, n = 3",0%
same,GI (growth inhibition of the cell line L929),"L929 cell line; c 1.2 mg/mL, n = 3",4%
same,GI (growth inhibition of the cell line L929),"L929 cell line; c 1.8 mg/mL, n = 3",7%
same,GI (growth inhibition of the cell line L929),"L929 cell line; c 2.4 mg/mL, n = 3",1%
same,GI (growth inhibition of the cell line L929),"L929 cell line; c 3.0 mg/mL, n = 3",2%
O=C(O)c1ccccc1O [salicylic acid],GI (growth inhibition of the cell line L929),"L929 cell line; c 0.1 mg/mL, n = 3",16%
same,GI (growth inhibition of the cell line L929),"L929 cell line; c 0.3 mg/mL, n = 3",19%
same,GI (growth inhibition of the cell line L929),"L929 cell line; c 0.5 mg/mL, n = 3",42%
same,GI (growth inhibition of the cell line L929),"L929 cell line; c 0.8 mg/mL, n = 3",54%
same,GI (growth inhibition of the cell line L929),"L929 cell line; c 1.1 mg/mL, n = 3",67%
same,GI (growth inhibition of the cell line L929),"L929 cell line; c 1.3 mg/mL, n = 3",74%
Gentamicin-Penta-Pantothenate,calculated MIC,[1]; 20 μg/cm^2,50 µg/mL
same,calculated MIC,[1]; 50 μg/cm^2,62.5 µg/mL
same,calculated MIC,[1]; 100 μg/cm^2,31.25 µg/mL
same,Growth Inhibition,L929 cells; 700 μg/cm^2,23%
same,Growth Inhibition,L929 cells; 800 μg/cm^2,18%
same,Growth Inhibition,L929 cells; 900 μg/cm^2,20%
same,mathematically required minimum dose (lower limit),[2],28 μg/cm^2
gentamicin sulfate,GI (growth inhibition of the cell line L929),"L929 cell line; c 0.3 mg/mL, n = 3",4%
same,GI (growth inhibition of the cell line L929),"L929 cell line; c 0.6 mg/mL, n = 3",8%
same,GI (growth inhibition of the cell line L929),"L929 cell line; c 1.2 mg/mL, n = 3",12%
same,GI (growth inhibition of the cell line L929),"L929 cell line; c 1.8 mg/mL, n = 3",12%
same,GI (growth inhibition of the cell line L929),"L929 cell line; c 2.4 mg/mL, n = 3",22%
same,GI (growth inhibition of the cell line L929),"L929 cell line; c 3.0 mg/mL, n = 3",29%
gentamicin,minimum inhibitory concentration,[3],64 µg/mL
O=C(O)c1ccccc1 [benzoic acid],GI (growth inhibition of the cell line L929),"L929 cell line; c 0.3 mg/mL, n = 3",10%
same,GI (growth inhibition of the cell line L929),"L929 cell line; c 0.6 mg/mL, n = 3",20%
same,GI (growth inhibition of the cell line L929),"L929 cell line; c 0.9 mg/mL, n = 3",35%
same,GI (growth inhibition of the cell line L929),"L929 cell line; c 1.5 mg/mL, n = 3",50%
same,GI (growth inhibition of the cell line L929),"L929 cell line; c 2.1 mg/mL, n = 3",64%
same,GI (growth inhibition of the cell line L929),"L929 cell line; c 3.0 mg/mL, n = 3",77%
